Test results taken from publication PMC12123458, “Unraveling Small Molecule-Mediated Sirtuin 3 Activation at a Distinct Binding Site for Cardioprotective Therapies” (ACS Central Science, 2025).
Like-named read-outs stand apart in the source and are kept apart here.

Assays:
[1] = biological target: SIRT6 (Homo sapiens, UniProt Q8N6T7); test: SPR binding to SIRT6
Protocol: The affinity of SKLB-11A for SIRT1, SIRT2, SIRT3, SIRT5, and SIRT6 was determined using a Reichert 4SPR system (Reichert Technologies, Depew, NY, USA). Proteins at 200 μg/mL were immobilized on a dextran-coated sensor chip (13206066) until reaching ≥12,000 response units (RUs). A dual-flow channel setup was used, reserving one channel for blank controls. SKLB-11A was introduced at varying concentrations for binding and subsequent dissociation kinetic analysis. Data acquisition was at 25 °C utilizing a PBST running buffer (pH 7.4). The equilibrium dissociation constant (K d) was computed from steady-state affinity measurements using TraceDrawer software.

[2] = tested on: acetylated MnSOD (K68 and K122) in H9c2 cells; test: Western blot of MnSOD, SIRT3 and acetylated MnSOD in H9c2 cells; assay type: cell-based; conditions: 24 h
Protocol: Proteomic analysis was conducted on H9c2 cells and murine cardiac tissues. Protein lysates were resolved via SDS-PAGE and transferred onto PVDF membranes. […] After washing, membranes were probed with secondary antibodies for 1 h at room temperature. Detection was facilitated by an ECL kit, with densitometry performed using ImageJ software to quantify protein expression, normalized against controls. The antibodies employed included: anti-SIRT3 (2627, Cell Signaling Technology), anti-acetylated lysine (9441, CST), anti-Ac.K68-MnSOD2 (ab137037, Abcam), anti-Ac.K122-MnSOD2 (ab214675, Abcam), anti-MnSOD2 (13141, CST), anti-LC3B (3868, CST), anti-p62 (8025, CST), anti-PINK1 (6946, CST), anti-Parkin (4211, CST), and anti-β-actin (ab8226, Abcam).

[3] = Pharmacokinetics in SD rats; assay type: in vivo, Sprague–Dawley (SD) rats; conditions: for MRT inf: read-out: MRT0–∞; for half-life: read-out: T1/2z (converted)
Protocol: Given the potential of SKLB-11A for treating myocardial injury, we further evaluated its pharmacokinetic profile in Sprague–Dawley (SD) rats (Supplementary Table S5). The pharmacokinetics were assessed following both intravenous injection (1 mg/kg) and intragastric administration (10 mg/kg) of SKLB-11A.

[4] = biological target: T1, SIRT1 (Homo sapiens, UniProt Q96EB6); test: Coupled enzymatic assay, acetylated p53-K381 substrate; assay type: biochemical; conditions: 100 μM
T1 sequence (Q96EB6 1-747): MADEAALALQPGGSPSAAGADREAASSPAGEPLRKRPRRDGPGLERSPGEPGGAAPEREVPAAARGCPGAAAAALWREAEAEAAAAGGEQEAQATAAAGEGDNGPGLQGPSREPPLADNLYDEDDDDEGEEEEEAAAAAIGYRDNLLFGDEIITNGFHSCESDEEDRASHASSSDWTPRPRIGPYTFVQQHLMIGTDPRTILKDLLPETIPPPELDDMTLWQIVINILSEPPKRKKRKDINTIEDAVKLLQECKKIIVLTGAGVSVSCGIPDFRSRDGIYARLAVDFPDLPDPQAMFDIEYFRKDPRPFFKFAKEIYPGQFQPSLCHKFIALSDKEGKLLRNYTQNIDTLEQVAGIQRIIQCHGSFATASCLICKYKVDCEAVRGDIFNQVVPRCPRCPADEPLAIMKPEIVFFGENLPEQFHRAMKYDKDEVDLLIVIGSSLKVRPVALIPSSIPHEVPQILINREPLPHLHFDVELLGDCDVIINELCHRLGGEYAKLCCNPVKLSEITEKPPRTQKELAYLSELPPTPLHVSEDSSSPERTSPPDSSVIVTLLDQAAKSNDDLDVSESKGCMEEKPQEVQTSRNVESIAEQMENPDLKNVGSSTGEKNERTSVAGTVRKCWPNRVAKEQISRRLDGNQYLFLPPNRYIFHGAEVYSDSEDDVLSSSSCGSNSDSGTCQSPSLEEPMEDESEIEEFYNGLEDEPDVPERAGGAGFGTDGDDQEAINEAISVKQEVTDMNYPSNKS
From the text: Additionally, we used surface plasmon resonance (SPR) to measure the binding of SKLB-11A to immobilized SIRT3. […] We next evaluated the selectivity of SKLB-11A for different SIRT family members. […] We next examined the functional specificity of SKLB-11A using coupled enzymatic assays with isoform-specific, physiologically relevant substrates: acetylated p53-K381 for SIRT1, acetylated α-tubulin-K25 for SIRT2, acetylated MnSOD-K122 for SIRT3, and succinylated CPS1-K537 for SIRT5 (Supplementary Table S3). […] Using Schrödinger molecular docking simulations, we assessed the binding interactions of SKLB-11A with SIRT isoforms.

[5] = tested on: myocardial ischemia/reperfusion (I/R) injury model; test: Mouse model of myocardial I/R injury; assay type: in vivo, C57BL/6J mice
[6] = biological target: T2, hSirt3 (Homo sapiens, UniProt Q9NTG7); test: Mass spectrometry-based deacetylation assay, substrate […]-Ac; assay type: biochemical; conditions: substrate GELLEAIK-Ac; SKLB-11A 100 μM
T2 sequence (Q9NTG7 1-399): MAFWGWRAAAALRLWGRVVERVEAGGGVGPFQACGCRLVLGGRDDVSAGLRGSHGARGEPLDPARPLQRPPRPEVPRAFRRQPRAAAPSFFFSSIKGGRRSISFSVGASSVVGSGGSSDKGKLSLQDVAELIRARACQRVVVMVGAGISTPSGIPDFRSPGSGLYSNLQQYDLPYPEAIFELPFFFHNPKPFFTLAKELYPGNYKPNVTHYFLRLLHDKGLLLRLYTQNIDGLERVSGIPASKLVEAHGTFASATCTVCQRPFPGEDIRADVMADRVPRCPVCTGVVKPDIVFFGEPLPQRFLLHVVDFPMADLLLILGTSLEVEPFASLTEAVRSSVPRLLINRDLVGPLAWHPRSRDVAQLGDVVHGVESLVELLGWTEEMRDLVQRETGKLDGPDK

[7] = Sprague-Dawley, rat, in vivo, iv, i.v. 1 mg/kg
[8] = Sprague-Dawley, rat, in vivo, po, p.o. 10 mg/kg

Sequence of SIRT6 (Q8N6T7 whole entry, species assumed): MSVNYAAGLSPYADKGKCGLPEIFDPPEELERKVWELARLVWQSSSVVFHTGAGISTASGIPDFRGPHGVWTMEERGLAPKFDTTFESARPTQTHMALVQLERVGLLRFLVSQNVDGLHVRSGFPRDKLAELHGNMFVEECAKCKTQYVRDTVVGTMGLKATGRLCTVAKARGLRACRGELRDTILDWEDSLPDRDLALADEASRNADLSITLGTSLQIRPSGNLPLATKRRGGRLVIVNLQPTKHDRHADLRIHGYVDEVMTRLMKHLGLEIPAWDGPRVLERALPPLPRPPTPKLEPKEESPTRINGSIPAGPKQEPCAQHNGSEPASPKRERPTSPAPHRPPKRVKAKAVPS

COC(=O)c1c(N)n(Cc2ccc(F)cc2)c2nc3ccccc3nc12 [SKLB-11A, Methyl 2-amino-1-(4-fluorobenzyl)-1H-pyrrolo[2,3-b]quinoxaline-3-carboxylate]
binding to SIRT6 [1]: no binding
SIRT3 protein levels [2]: did not alter SIRT3 protein levels
deacetylation of MnSOD at K122 and K68 [2]: induced deacetylation at K122 and K68
AUC(0-inf) [3, 7]: 185 ± 20 ng·h/mL
AUC(0-t) [3, 7]: 185 ± 19.9 ng·h/mL
Cmax [3, 7]: 255 ± 3.42 ng/mL
Tmax [3, 7]: 4.8 min
clearance ([3]; Sprague-Dawley, rat, in vivo, iv, i.v. 1 mg/kg, read-out: CLZ (converted)): 90.7 mL/min/kg
MRT inf [3, 7]: 43.2 ± 3.6 min
half-life [3, 7]: 36 ± 3.6 min
Vd ([3]; Sprague-Dawley, rat, in vivo, iv, i.v. 1 mg/kg, read-out: VZ): 4.66 ± 0.2 L/kg
AUC(0-inf) [3, 8]: 128 ± 29.2 ng·h/mL
AUC(0-t) [3, 8]: 123 ± 23.6 ng·h/mL
Cmax [3, 8]: 67.9 ± 13 ng/mL
Tmax [3, 8]: 15 min
MRT inf [3, 8]: 266 ± 107 min
half-life [3, 8]: 326 ± 156 min
VZ ([3]; p.o. 10 mg/kg): 39.99 ± 12.09 L/kg
effect on basal SIRT1 deacetylation activity [4]: no statistically significant effects
I/R-induced elevations in serum LDH, CK-MB, BNP ([5]; 20 mg/kg ig, 24 h after I/R surgery): partially reversed
infarct size ([5]; 20 mg/kg ig, Evans blue/TTC, 24 h after I/R, vs I/R group): significant reduction in infarcted areas
I/R-induced cardiac fibrosis ([5]; 20 mg/kg ig, Masson's trichrome, 28 d after I/R): markedly reduced
cardiac function (EF and FS) ([5]; 20 mg/kg/day, ig, 1 week, I/R mice): restored cardiac function
catalytic efficiency of SIRT3 deacetylation (MS assay) [6]: significantly increased the catalytic efficiency
